Assay results taken from ChEMBL document CHEMBL3217660, “Design, synthesis and antiproliferative activity of urocanic-chalcone hybrid derivatives” (Medchemcomm, 2011).

Legend:
HT-29 [1] = test: Antiproliferative activity against human HT-29 cells assessed as inhibition of cell proliferation after 3 days by MTS assay; format: functional, cell-based; settings: HT-29, 72 h
MDA-MB-231 = test: Antiproliferative activity against human MDA-MB-231 cells assessed as inhibition of cell proliferation after 3 days by MTS assay; format: functional, cell-based; settings: MDA-MB-231, 72 h
LNCaP = test: Antiproliferative activity against human LNCAP cells assessed as inhibition of cell proliferation after 3 days by MTS assay; format: functional, cell-based; settings: 72 h
[2] = Antiproliferative activity against human FEK4 cells assessed as inhibition of cell proliferation after 3 days by MTS assay; format: cell-based; settings: FEK4, 72 h
HCT-116 = test: Inhibition of human HCT116 cell proliferation; format: functional, cell-based
A2780 = test: Inhibition of human A2780 cell proliferation; format: functional, cell-based
K562 = test: Inhibition of human K562 cell proliferation; format: functional, cell-based
Tubulin (Homo sapiens) = Tubulin (Homo sapiens) (UniProt P68371+Q9H4B7+P0DPH7+P68366+Q13509+Q71U36+P04350+Q3ZCM7+P07437+P68363+Q9BQE3+Q6PEY2+Q13885+Q9BVA1+Q9BUF5); test: Induction of tubulin (unknown origin) polymerization; format: protein-complex assay
HT-29 [3] = test: Inhibition of human HT-29 cell proliferation; format: functional, cell-based

COc1cc(C(=O)/C=C/c2cnc[nH]2)cc(OC)c1OC
IC50 (HT-29 [1]): 19.5 µM | IC50 (MDA-MB-231): 22.9 µM | IC50 (LNCaP): 48.1 µM | IC50 [2]: 53.2 µM

COc1ccc(O[C@@H]2/C=C\CC(O)C[C@@H]3[C@@H](C(C)C)CC=C(C)[C@@H]3C[C@@H]2OC(=O)/C=C/c2cn(C)cn2)cc1 (single isomer, unassigned)
IC50 (HCT-116): 0.9 µM | IC50 (A2780): 1.9 µM | IC50 (K562): 2.3 µM | ED90 (Tubulin (Homo sapiens)): 0.5 µM

Cn1cnc(/C=C/C(=O)O[C@H]2C/C=C\CC[C@@H]3C=C[C@H]2O3)c1
ED90 (Tubulin (Homo sapiens)): 6 µM

COc1ccc(C(=O)/C=C/c2ccc[nH]2)cc1
IC50 (HT-29 [1]): > 500 µM | IC50 (MDA-MB-231): > 500 µM | IC50 (LNCaP): > 500 µM | IC50 [2]: > 500 µM

O[C@H]1C/C=C\CC[C@@H]2C=C[C@H]1O2
ED90 (Tubulin (Homo sapiens)): 3 µM

COc1ccc(C(=O)/C=C/c2cnc[nH]2)cc1OC
IC50 (HT-29 [1]): 37.9 µM | IC50 (MDA-MB-231): 18.2 µM | IC50 (LNCaP): 46.2 µM | IC50 [2]: 84.2 µM

COc1cc(C(=O)/C=C/c2cn(C)cn2)cc(OC)c1OC
IC50 (HT-29 [1]): 2.9 µM | IC50 (MDA-MB-231): 4.8 µM | IC50 (LNCaP): 48.4 µM | IC50 [2]: 85 µM

COc1cc(C(=O)/C=C/c2ccc[nH]2)cc(OC)c1OC
IC50 (HT-29 [1]): 43 µM | IC50 (MDA-MB-231): 49.9 µM | IC50 (LNCaP): 59.9 µM | IC50 [2]: 156 µM

CC1=CC[C@H](C(C)C)[C@H]2C[C@H](OC(=O)C(C)(C)C)[C@@H](O)/C=C\C[C@@H](OC(=O)/C=C/c3cn(C)cn3)C[C@@H]12
IC50 (HT-29 [3]): 5 µM | IC50 (HCT-116): 4 µM | IC50 (A2780): 4 µM | ED90 (Tubulin (Homo sapiens)): 1.8 µM | IC50 (HT-29 [1]): 5 µM

COc1cc(C(=O)/C=C/c2cncn2C)cc(OC)c1OC
IC50 (HT-29 [1]): 15.9 µM | IC50 (MDA-MB-231): 16.9 µM | IC50 (LNCaP): 30.6 µM | IC50 [2]: 49.9 µM

COc1cc(C(=O)/C=C/c2ncc[nH]2)cc(OC)c1OC
IC50 (HT-29 [1]): 5 µM | IC50 (MDA-MB-231): 4.9 µM | IC50 (LNCaP): 17.1 µM | IC50 [2]: 28.6 µM

COc1cccc2c1C(=O)c1c(O)c3c(c(O)c1C2=O)C[C@@](O)(C(=O)CO)C[C@@H]3O[C@H]1C[C@H](N)[C@H](O)[C@H](C)O1 [DOXORUBICIN]
IC50 (HT-29 [1]): 0.164 µM | IC50 (MDA-MB-231): 0.12 µM | IC50 (LNCaP): 0.154 µM

COc1cc(C(=O)/C=C/c2cccn2C)cc(OC)c1OC
IC50 (HT-29 [1]): 12.5 µM | IC50 (MDA-MB-231): 18 µM | IC50 (LNCaP): 69.5 µM | IC50 [2]: 118 µM

COc1cc(C(=O)/C=C/c2nccn2C)cc(OC)c1OC
IC50 (HT-29 [1]): 4.2 µM | IC50 (MDA-MB-231): 4.9 µM | IC50 (LNCaP): 11 µM | IC50 [2]: 17.5 µM

CC(=O)O[C@H]1C(=O)[C@@]2(C)[C@H]([C@H](OC(=O)c3ccccc3)[C@]3(O)C[C@H](OC(=O)[C@H](O)[C@@H](NC(=O)c4ccccc4)c4ccccc4)C(C)=C1C3(C)C)[C@]1(OC(C)=O)CO[C@@H]1C[C@@H]2O [PACLITAXEL]
ED90 (Tubulin (Homo sapiens)): 0.5 µM | IC50 (HT-29 [1]): < 0.005 µM

COc1cc(C(=O)CCc2cnc[nH]2)cc(OC)c1OC
IC50 (HT-29 [1]): > 500 µM | IC50 (MDA-MB-231): 223 µM | IC50 (LNCaP): 368 µM | IC50 [2]: > 500 µM

COc1ccc(C(=O)/C=C/c2cccn2C)cc1OC
IC50 (HT-29 [1]): 60.4 µM | IC50 (MDA-MB-231): 42.8 µM | IC50 (LNCaP): 56.3 µM | IC50 [2]: 162 µM

COc1ccc(C(=O)/C=C/c2cccn2C)cc1
IC50 (HT-29 [1]): 61.8 µM | IC50 (MDA-MB-231): 53.5 µM | IC50 (LNCaP): 75.5 µM | IC50 [2]: 188 µM

COc1ccc(C(=O)/C=C/c2ccc[nH]2)cc1OC
IC50 (HT-29 [1]): 86 µM | IC50 (MDA-MB-231): 102 µM | IC50 (LNCaP): 105 µM | IC50 [2]: 135 µM
